Earlier results in US20240307504A1, “INTRANASAL FORMULATIONS AND DELIVERY OF SOMATOSTATIN MIMETICS AND USES THEREOF” (NBO PHARMA LLC, priority 2021, published 2024).
Read-outs that look alike come from different tables or passages of the source.

Compound	biological half-life (after intravenous administration)	biological half-life (after subcutaneous administration)	biological half-life (in vivo)
C[C@@H](O)[C@@H]1NC(=O)[C@H](CCCCN)NC(=O)[C@@H](Cc2c[nH]c3ccccc23)NC(=O)[C@H](Cc2ccccc2)NC(=O)[C@@H](NC(=O)[C@H](N)Cc2ccccc2)CSSC[C@@H](C(=O)N[C@H](CO)[C@@H](C)O)NC1=O [Octreotide]	72 minutes	102 minutes	–
L-alanyl-glycyl-L-cysteinyl-L-lysyl-L-asparagyl-L-phenylalanyl-L-phenylalanyl-L-tryptophyl-L-lysyl-L-threonyl-L-phenylalanyl-L-threonyl-L-seryl-L-cysteine (3->14)-disulfide [somatostatin]	–	–	2-3 minutes
